Results on two molecules are retold here after patent publication US20230270788A1, “COMPOSITION FOR AUGMENTING STEMNESS AND USE THEREOF” (GENECHEM INC., priority 2019, published 2023).

In data set [1] the test system is hBMSCs. Briefly: Proliferation genes CCNA2 and CDK2 expression by qRT-PCR. Type of data set: cell-based, human. The note with it: hBMSCs having low proliferation ability, 100 μM, mRNA, FIG. 8. The source says:
(§1) In Example 1, human bone marrow-derived mesenchymal stem cells (hBMSCs), human adipose tissue-derived mesenchymal stem cells (hATMSCs), human cord blood-derived mesenchymal stem cells (hCBMSCs), and induced pluripotent stem cells-derived hepatic organoid were used in this experiment. Dulbecco's Modified Eagle's Mediums (DMEM Low Glucose, available from HyClone in Logan, Utah, USA) including 10% fetal bovine serum (available from T&I in Gangwon, Korea), 1% antibiotics (penicillin/streptomycin, available from Gibco in Grand Island, NY, USA) were used as culture mediums of hBMSCs, hATMSCs, and hCBMSCs. After treating 3′-sialyllactose (available from GeneChem), 6′-sialyllactose (available from GeneChem), and a mixture of 3′-sialyllactose and 6′-sialyllactose, each in an amount of 100 μM, the culturing solutions were replaced every 3 days. The negative control was performed in the same manner after adding triple distilled water into the culturing solution. Also, a Hepatocyte Culture Medium (available from Lonza) including an endothelial cell growth medium-2 (available from Lonza), 2.5% FBS, 100 nM dexamethasone (available from Sigma-Aldrich), 20 ng/ml OSM (available from R&D system), and 10 ng/ml HGF (available from PeproTech) was used as the culturing solution of hepatic organoid, and the culturing solution was replaced every 3 days. […]

In data set [2] the test system is hBMSCs. Kind of data set: Cell senescence factors p16 and p53 by qRT-PCR and Western Blot after subculturing. The note with it: hBMSCs subcultured, 100 μM, versus without treatment, FIG. 7. Type of data set: cell-based, human.
Description: as §1, with “solution.” for “solution. Also, a Hepatocyte Culture Medium (available from Lonza) including an endothelial cell growth medium-2 (available from Lonza), 2.5% FBS, 100 nM dexamethasone (available from Sigma-Aldrich), 20 ng/ml OSM (available from R&D system), and 10 ng/ml HGF (available from PeproTech) was used as the culturing solution of hepatic organoid, and the culturing solution was replaced every 3 days.”
In Example 4, influence of a sialyloligosaccharide on senescence of stem cells was to be confirmed. Particularly, after treating the hBMSC stem cells with 3′-sialyllactose, changes in expression at mRNA and protein levels of p16 and p53, which are cell senescence factors after subculturing were each measured by qRT-PCT and Western Blot. […]
A general note: Quantitative PCR measures a nucleic acid by following its amplification.

The test system of data set [3] is induced pluripotent stem cells-derived hepatic organoids. Briefly: Metabolic maturity of hepatic organoids, mRNA expression ratios by qRT-PCR. Type of data set: cell-based. The note with it: 6 days; for ratios of ALB/AFP: FIG. 12. An excerpt:
(§2) In Example 1, human bone marrow-derived mesenchymal stem cells (hBMSCs), human adipose tissue-derived mesenchymal stem cells (hATMSCs), human cord blood-derived mesenchymal stem cells (hCBMSCs), and induced pluripotent stem cells-derived hepatic organoid were used in this experiment. Dulbecco's Modified Eagle's Mediums (DMEM Low Glucose, available from HyClone in Logan, Utah, USA) including 10% fetal bovine serum (available from T&I in Gangwon, Korea), 1% antibiotics (penicillin/streptomycin, available from Gibco in Grand Island, NY, USA) were used as culture mediums of hBMSCs, hATMSCs, and hCBMSCs. After treating 3′-sialyllactose (available from GeneChem), 6′-sialyllactose (available from GeneChem), and a mixture of 3′-sialyllactose and 6′-sialyllactose, each in an amount of 100 μM, the culturing solutions were replaced every 3 days. The negative control was performed in the same manner after adding triple distilled water into the culturing solution. Also, a Hepatocyte Culture Medium (available from Lonza) including an endothelial cell growth medium-2 (available from Lonza), 2.5% FBS, 100 nM dexamethasone (available from Sigma-Aldrich), 20 ng/ml OSM (available from R&D system), and 10 ng/ml HGF (available from PeproTech) was used as the culturing solution of hepatic organoid, and the culturing solution was replaced every 3 days.
In Example 8, influence of a sialyloligosaccharide on maturity of induced pluripotent stem cells-derived hepatic organoids was to be confirmed. Particularly, after subculturing the hepatic organoids, the organoids were stabilized in a hepatic medium (HM) for a day and treated with 3′-sialyllactose and 6′-sialyllactose in concentrations of 0, 0.1, 1, 10, and 100 μM for 6 days, and then total RNAs were isolated from the hepatic organoids on the 7th day. The changes in expressions at mRNA level of CYP3A4, CYP2A7, ALB, and AFP, which are markers of metabolic maturity, were each measured by qRT-PCR, and the expression ratios were compared to confirm the metabolic maturity.

In data set [4] the test system is hCBMSCs. Kind of data set: Stemness markers OCT4, SOX2, NANOG by qRT-PCR and western blot, hCBMSCs. The class given is cell-based, human. The note with it: 100 μM, compared to stem cells cultured without a sialyllactose, FIG. 6.
Description: as §2
(§3) In Example 3, influence of a sialyloligosaccharide on stemness of stem cells was to be confirmed. Particularly, after treating mesenchymal stem cells with each of 3′-sialyllactose, 6′-sialyllactose, and a combination thereof, mRNAs of OCT4, SOX2, and NANOG, which are stem cell markers of the mesenchymal stem cells, and changes in expression at protein levels were each measured by quantitative real-time reverse transcription-polymerase chain reaction (qRT-PCR) and western blot. In particular, total RNAs were isolated from the cells collected after culturing the cells in the same manner as in Example 1, and change in mRNA expression of the isolated total RNAs was confirmed by qRT-PCR using OCT4 primers available from Bioneer (Daejeon, Korea), SOX2 primers available from Bioneer (P200205), and NANOG primers.

In data set [5] the test system is hBMSCs. Kind of data set: Senescence-associated beta-galactosidase (SA-β-gal) staining. The class given is cell-based, human. The note with it: hBMSCs of 10 passages, 100 μM, versus without treatment, FIG. 7C. The method, then: Also, in order to confirm a degree of senescence of the stem cells after being treated with 3′-sialyllactose (GeneChem), senescence-associated beta-galactosidase staining was performed on hBMSCs of 10 passages, treated with 100 μM of 3′-sialyllactose. In particular, after fixing the cells in formalin, the resultant washed with PBS, and 1 mg/mL of a β-gal staining solution X-Gal, 40 mM of a citric acid-sodium phosphate buffer solution, 150 mM of NaCl, 2 mM of MgCl2, 5 mM of potassium ferrocyanide, and 5 mM of potassium ferricyanide (pH 6.0, available from Sigma-Aldrich, St. Louis, USA) were add to the resultant and reacted at 37° C. Then, degrees of senescence activity of the aged cells (blue, positive) and cells not showing activity of senescence (negative) were confirmed using Eclipse TS100 (available from Nikon USA, Melville, N.Y., USA).

Data set [6] has as its system human adipose tissue-derived mesenchymal stem cells (hATMSCs). Kind of data set: Cell viability by CCK-8 analysis, hATMSCs. The class given is cell-based. The note with it: FIG. 2; for influence on cell viability: all the concentrations (50, 100, 200, 400 μM); for cell viability: concentration of 100 μM. The method, then: (§4) In Example 2, influence of a sialyloligosaccharide on cell viability of stem cells was to be confirmed. Particularly, 3′-sialyllactose, 6′-sialyllactose, and a combination thereof were each treated on the subcultured stem cells in a concentration of 0, 50, 100, 200, or 400 μM, and the cell viability per concentration was verified by cell counting kit-8 (CCK-8) analysis. In particular, of hBMSCs, hATMSCs, and hCBMSCs were seeded in a 96-well plate. Then, the stem cells were treated with 3′-sialyllactose (GeneChem), 6′-sialyllactose (GeneChem), and a mixture of 3′-sialyllactose and 6′-sialyllactose in a concentration of 0, 50, 100, 200, or 400 μM and cultured in a DMEM low glucose medium (HyClone) including 1% antibiotics free of fetal bovine serum (T&I). Next, the viabilities of the cultured cells were confirmed by CCK-8 (Dojindo Laboratories, Kumamoto, Japan) analysis.

In data set [7] the test system is human cord blood-derived mesenchymal stem cells (hCBMSCs). Briefly: Cell viability by CCK-8 analysis, hCBMSCs. Type of data set: cell-based. The note with it: FIG. 3; for influence on cell viability: all the concentrations (50, 100, 200, 400 μM); for cell viability: concentration of 100 μM. As to the method: as §4
In data set [8] the test system is induced pluripotent stem cells-derived hepatic organoids. Briefly: Cell viability of hepatic organoids by CCK analysis. The class given is cell-based. The note with it: concentrations of 0.1, 1, 10, and 100 μM for 6 days, 7th day, FIG. 10.
Description: as §1

For data set [9], the system named is human bone marrow-derived mesenchymal stem cells (hBMSCs). Briefly: Cell viability by CCK-8 analysis, hBMSCs. Type of data set: cell-based. The note with it: FIG. 1; for influence on cell viability: all the concentrations (50, 100, 200, 400 μM); for cell viability: concentration of 100 μM. As to the method: as §4
Data set [10] concerns hBMSCs. Kind of data set: Stemness markers OCT4, SOX2, NANOG by qRT-PCR and western blot, hBMSCs. Type of data set: cell-based, human. The note with it: 100 μM, compared to stem cells cultured without a sialyllactose, FIG. 4.
Description: as §2, §3

For data set [11], the system named is hBMSCs. Briefly: Cell viability per subculturing passage by CCK-8. Type of data set: cell-based, human. The note with it: hBMSCs subcultured for 4, 7, 10, and 12 passages, 100 μM, FIG. 9. As to the method: In Example 6, influence of a sialyloligosaccharide on viability of stem cells according to cell subculturing passages was to be confirmed. Particularly, hBMSCs subcultured for 4, 7, 10, and 12 passages were treated with 3′-sialyllactose in a concentration of 100 μM, and the cell viability was confirmed by cell counting kit-8 assay (CCK-8) analysis. In particular, the hBMSCs were seeded in a 96-well plate. Then, the stem cells were treated with 3′-sialyllactose (GeneChem) in a concentration of 100 μM and cultured in a DMEM low glucose medium (HyClone) including 1% antibiotics free of fetal bovine serum (T&I). Viabilities of the cultured cells were confirmed by the CCK-8 analysis.

The test system of data set [12] is hATMSCs. Briefly: Stemness markers OCT4, SOX2, NANOG by qRT-PCR and western blot, hATMSCs. The note with it: 100 μM, compared to stem cells cultured without a sialyllactose, FIG. 5. Type of data set: cell-based, human.
Description: as §2, §3

As to `CC(=O)N[C@H]1[C@H]([C@H](O)[C@H](O)CO)O[C@@](O[C@H]2[C@@H](O)[C@@H](CO)O[C@@H](O[C@H]3[C@H](O)[C@@H](O)C(O)O[C@@H]3CO)[C@@H]2O)(C(=O)O)C[C@@H]1O` (some centres unmarked) [3′-sialyllactose], in [1], the “expression of CCNA2” value is given as “significantly increased” and the “expression of CDK2” value is “significantly increased”. Besides, in data set [2], the “expression at mRNA and protein levels of p16” value is “very low expression”; the “expression at mRNA and protein levels of p53” value is “very low expression”. Moreover, the “ratios of ALB/AFP” value in data set [3] (concentrations of 1, 10, and 100 μM) is given as “significantly increased”. In addition, in data set [3] (concentrations of 1 and 10 μM, FIG. 11), the “ratios of CYP3A4/CYP3A7” value is “significantly increased”. For the same molecule, in data set [4], the “expression at mRNA and protein levels of NANOG” value (shortened to “expression … of NANOG”) was “significantly increased”; the “expression at mRNA and protein levels of OCT4” value (shortened to “expression … of OCT4”) is “significantly increased”; the “expression at mRNA and protein levels of SOX2” value (from here on “expression … of SOX2”) is “significantly increased”. Further, the SA-β-gal activity entry in data set [5] was “low SA-β-gal activity”. In [6], the “influence on cell viability” value is on record as “did not negatively influence the cell viability” and the cell viability result is recorded as “increased significantly”. In data set [7], the “influence on cell viability” value was “did not negatively influence the cell viability” and the cell viability result is on record as “increased significantly”. For the same molecule, in data set [8], the “cell viability of hepatic organoids” value is reported as “significantly increased”. Besides, in [9], the “influence on cell viability” value is recorded as “did not negatively influence the cell viability” and the cell viability result was “increased significantly”. Moreover, in data set [10], the “expression … of NANOG” value is “significantly increased”; the “expression … of OCT4” value is given as “significantly increased”; the “expression … of SOX2” value is listed as “significantly increased”. For the same molecule, the cell viability entry in [11] is recorded as “significantly increased”. Further, in [12], the “expression … of NANOG” value is “significantly increased”; the “expression … of OCT4” value is “significantly increased”; the “expression … of SOX2” value is “significantly increased”.
With `CC(=O)N[C@H]1[C@H]([C@H](O)[C@H](O)CO)O[C@@](OC[C@H]2O[C@@H](O[C@H]3[C@H](O)[C@@H](O)[C@H](O)O[C@@H]3CO)[C@H](O)[C@@H](O)[C@H]2O)(C(=O)O)C[C@@H]1O` [6′-sialyllactose], the “ratios of ALB/AFP” value in data set [3] (concentrations of 0.1 and 100 μM) was “significantly increased”. The “expression … of NANOG” value in data set [4], in data set [10] and in data set [12] was “significantly increased” in each case. Moreover, the “expression … of OCT4” value in [4], in data set [10] and in data set [12] was “significantly increased” throughout. Besides, the “expression … of SOX2” value in [4], in data set [10] and in data set [12] was “significantly increased” in each case. In addition, the “influence on cell viability” value in data set [6], in [7] and in data set [9] was “did not negatively influence the cell viability” each time. Besides, the cell viability result in [6], in [7] and in data set [9] was “increased significantly” each time. Also, the “cell viability of hepatic organoids” value in data set [8] is “significantly increased”.
